{"source": "paper PMC12693764", "about": "“Antidepressant-like Effects of Garcinia nigrolineata Resin Extract in a Chronic Mild Stress Mouse Model: Modulation of Monoaminergic and HPA-Axis Pathways” (Plants, 2025)", "key": {"MAO-B": {"test_system": "MAO-B", "settings": "cited from earlier work; for MAO-B inhibition (targeting): GNR-E constituents, ref Previous studies"}, "[1]": {"test_system": "serum corticosterone (CORT)", "experiment": "Serum corticosterone (CORT) ELISA in CMS mice", "assay_type": "in vivo, male ICR mice", "settings": "daily imipramine 20 mg/kg or GNR-E 50, 150 and 450 mg/kg, p < 0.001 vs vehicle-treated CMS group", "protocol": "(§1) The CMS procedure, adapted from Willner, was applied to experimental mice over 48 days. Seventy-two mice were randomly assigned to six groups: a non-stress control group and four CMS-exposed groups for 6 weeks. Stressors included a tilted cage at 45° (12 h), restricted food access (five micro pellets, 1 h), empty bottle exposure (3 h), wet cage (200 mL water in 100 g sawdust bedding, 21 h), reversed light–dark cycle (36 h), intermittent sound (3 and 5 h), paired caging (2 h), and food/water deprivation (18 h), applied randomly weekly and repeated over 6 weeks (Figure 11). The non-stressed group was maintained under standard conditions.\nMice were randomly divided into six groups […]. The non-stress group received 0.5% sodium carboxymethylcellulose (SCMC; 1 mL/kg, p.o.), while the CMS group received 0.5% SCMC (1 mL/kg, p.o.). The CMS + imipramine (IMP) group was administered imipramine hydrochloride (20 mg/kg, p.o.), and the CMS + GNR-E groups received GNR-E at 50, 150, and 450 mg/kg (p.o.), respectively. All treatments were given daily for 3 weeks, starting on day 21, at 8:00 a.m., one hour before behavioral testing. […]\nCorticosterone levels were measured using an enzyme-linked immunosorbent assay (ELISA) kit (ab108821, Abcam Ltd., Cambridge, Cambridgeshire, UK) following the manufacturer’s instructions. […]"}, "[2]": {"test_system": "SERT, 5-HT1A, 5-HT1B, 5-HT2A, 5-HT2C, and 5-HT7", "experiment": "qPCR of serotonergic biomarker genes in frontal cortex and hippocampus of CMS mice", "assay_type": "in vivo, male ICR mice", "source_text": "The CMS procedure, adapted from Willner [4], was applied to experimental mice over 48 days. Seventy-two mice were randomly assigned to six groups: a non-stress control group and four CMS-exposed groups for 6 weeks.\nThe frontal cortex (FC) and hippocampus (HP) were dissected from the brain for serotonin (5-HT), norepinephrine (NE) level assessments, and RT-qPCR analyses.\nTotal RNA was extracted from frontal cortex (FC) and hippocampus (HP) using TRLzol® reagent (Thermo Fisher Scientific Inc., San Jose, CA, USA), with purity and quantity assessed via UV spectrophotometry. Complementary DNA (cDNA) was synthesized using 10 mM dNTP, 50 µM oligo (dT)12-13 primer, and SuperScript® III reverse transcriptase (200 U/µL) in a FlexCycler2 PCR Thermal Cycler (Analytik Jena, Thuringia, Germany). Single-stranded DNA was annealed to gene-specific primers (Pacific Science, Bangkok, Thailand) at optimized temperatures, followed by extension. Double-stranded DNA was quantified using SYBR Green master mix (Thermo Fisher Scientific Inc., San Jose, CA, USA) in a 20 µL reaction containing 2X SYBR Green PCR Master Mix, 10 nM of each primer, and 5 µL cDNA. […] Melting curve analysis was conducted post-amplification. Glyceraldehyde 3-phosphate dehydrogenase (GAPDH) mRNA served as the housekeeping gene, and fold differences were calculated using the 2^−∆∆CT method, incorporating standard deviation into the fold-difference calculation [30]."}, "NET, α2A, and α2C": {"test_system": "NET, α2A, and α2C", "experiment": "qPCR of noradrenergic biomarker genes in frontal cortex and hippocampus of CMS mice", "assay_type": "in vivo, male ICR mice", "protocol": "as §1\nMice were randomly divided into six groups (n = 15). The non-stress group received 0.5% sodium carboxymethylcellulose (SCMC; 1 mL/kg, p.o.), while the CMS group received 0.5% SCMC (1 mL/kg, p.o.). The CMS + imipramine (IMP) group was administered imipramine hydrochloride (20 mg/kg, p.o.), and the CMS + GNR-E groups received GNR-E at 50, 150, and 450 mg/kg (p.o.), respectively. All treatments were given daily for 3 weeks, starting on day 21, at 8:00 a.m., one hour before behavioral testing.\nFollowing behavioral tests, mice were anesthetized with […] (Nembutal®, Ceva Sante Animal, Libourne, France) at 60 mg/kg (i.p.) and decapitated. Blood and brain samples were collected immediately. Blood was centrifuged at 3000 rpm at 21 °C for 20 min to obtain serum for ELISA analysis. […]\n(§2) Total RNA was extracted from frontal cortex (FC) and hippocampus (HP) using TRLzol® reagent (Thermo Fisher Scientific Inc., San Jose, CA, USA), with purity and quantity assessed via UV spectrophotometry. […] Double-stranded DNA was quantified using SYBR Green master mix (Thermo Fisher Scientific Inc., San Jose, CA, USA) in a 20 µL reaction containing 2X SYBR Green PCR Master Mix, 10 nM of each primer, and 5 µL cDNA. […] Glyceraldehyde 3-phosphate dehydrogenase (GAPDH) mRNA served as the housekeeping gene, and fold differences were calculated using the 2^−∆∆CT method, incorporating standard deviation into the fold-difference calculation."}, "norepinephrine (NE)": {"test_system": "norepinephrine (NE)", "experiment": "Norepinephrine (NE) levels in frontal cortex and hippocampus of CMS mice", "assay_type": "in vivo, male ICR mice", "settings": "daily imipramine 20 mg/kg or GNR-E 450 mg/kg, vs vehicle-treated CMS group", "protocol": "as §1\n(§3) Mice were randomly divided into six groups (n = 15). The non-stress group received 0.5% sodium carboxymethylcellulose (SCMC; 1 mL/kg, p.o.), while the CMS group received 0.5% SCMC (1 mL/kg, p.o.). […]\nBrain supernatant (0.2 mL) was combined with 0.1 mL sodium acetate buffer (pH 6.9), 0.05 mL HCl (0.4 M), and 0.1 mL iodine solution (0.1 M in ethanol) for oxidation. […] Excitation and emission spectra were recorded at 395 nm and 485 nm, respectively, using a calibrated spectrofluorometer. Norepinephrine concentrations were calculated from a standard curve (0, 50, 100, 140, 220, 280, 300 µg/mL) prepared in distilled water and butanol/HCl (1:2 ratio)."}, "[3]": {"test_system": "depressive-like behaviors", "experiment": "Chronic mild stress (CMS) mouse model of depression, behaviours overall", "assay_type": "in vivo, male ICR mice", "settings": "CMS mice, oral GNR-E 50, 150, 450 mg/kg/day, imipramine 20 mg/kg/day", "protocol": "as §1, with “conditions. Mice were randomly divided into six groups […]. The non-stress group received 0.5% sodium carboxymethylcellulose (SCMC; 1 mL/kg, p.o.), while the CMS group received 0.5% SCMC (1 mL/kg, p.o.). […] All treatments were given daily for 3 weeks, starting on day 21, at 8:00 a.m., one hour before behavioral testing.” for “conditions.”"}, "[4]": {"test_system": "glucocorticoid receptor (GR) and serum/glucocorticoid-regulated kinase-1 (SGK-1)", "experiment": "qPCR of HPA-axis genes in frontal cortex and hippocampus of CMS mice", "assay_type": "in vivo, male ICR mice", "settings": "FC and HP, daily imipramine or GNR-E 50, 150, 450 mg/kg, vs vehicle-treated CMS group", "protocol": "as §1\nMice were randomly divided into six groups (n = 15). […]\nas §2"}, "serotonin (5-HT)": {"test_system": "serotonin (5-HT)", "experiment": "Serotonin (5-HT) levels in frontal cortex and hippocampus of CMS mice", "assay_type": "in vivo, male ICR mice", "settings": "daily imipramine 20 mg/kg or GNR-E 450 mg/kg, vs vehicle-treated CMS group", "protocol": "as §1, §3\nSerotonin levels in mouse brain extracts were quantified using a modified fluorometric method.A 0.2 mL brain extract sample was mixed with 0.25 mL O-phthaldialdehyde (Sigma-Aldrich, St. Louis, MO, USA) and heated to 100 °C for 10 min to form a fluorophore. Levels were measured spectrofluorometrically at 340 nm (excitation) and 470 nm (emission) after cooling to room temperature. Concentrations were determined against a calibration curve (0, 25, 50, 100, 200, 300, 400 µg/mL) using the equation Y = AX + B, expressed as µg/mL."}, "[5]": {"test_system": "CMS-induced anhedonia behavior", "experiment": "Sucrose preference (consumption) test in CMS mice", "assay_type": "in vivo, male ICR mice", "settings": "imipramine 20 mg/kg p.o. daily, by week 4", "protocol": "Five-week-old male ICR mice (15–20 g) were obtained from Nomura Siam International (Bangkok, Thailand) and acclimatized for seven days prior to experimentation. The study protocol adhered to the Guiding Principle for the Care and Use of Animals (NIH Publications #8-23, revised 2011) and was approved by the Animal Ethics Committee of Khon Kaen University (approval No. IACUC-KKU-121/64), complying with ARRIVE guideline 2.0. […] Behavioral experiments were conducted between 07:00 and 17:00 h. The CMS procedure, adapted from Willner, was applied to experimental mice over 48 days. Seventy-two mice were randomly assigned to six groups: a non-stress control group and four CMS-exposed groups for 6 weeks. […] The amount consumed each day was recorded and used to group the mice and establish the baseline sucrose consumption before initiating the chronic stress procedure. During the subsequent experimental period (week 1–6), sucrose consumption was measured weekly using the same deprivation and testing conditions under chronic stress. The weight of each mouse and the amount of sucrose solution consumed were recorded and calculated as the amount of sucrose intake g/kg body weight)."}, "MAO-A": {"test_system": "MAO-A", "settings": "cited from earlier work; for selective MAO-A inhibition: GNR-E constituents, ref Previous studies"}, "immobility": {"test_system": "immobility", "parameters": "method as in Sahu et al.", "settings": "α-mangostin from G. mangostana, by elevating 5-HT; ref Sahu et al.; cited from earlier work"}, "[6]": {"test_system": "antidepressant-like properties", "settings": "through monoaminergic modulation; cited from earlier work"}, "[7]": {"settings": "FC and HP, imipramine, GNR-E 150–450 mg/kg"}, "[8]": {"settings": "imipramine, GNR-E 150–450 mg/kg"}}, "note": "Structures can show the parent of a compound that is named as a salt."}
{"molecule": "COc1cc2oc3cc(O)c(CC=C(C)C)c(O)c3c(=O)c2c(CC=C(C)C)c1OC", "note": "[cowaxanthone B]", "values": [{"measurement": "MAO-B inhibition (targeting)", "setting": "MAO-B", "value": "targeting MAO-B"}]}
{"molecule": "CN(C)CCCN1c2ccccc2CCc2ccccc21", "note": "[imipramine, imipramine hydrochloride]", "values": [{"measurement": "serum CORT levels", "setting": "[1]", "value": "significantly reduced these elevated CORT levels"}, {"measurement": "CMS-induced upregulation of serotonergic biomarker genes (SERT, 5-HT1A, 5-HT1B, 5-HT2A, 5-HT2C, 5-HT7)", "setting": "[2]; FC and HP, daily imipramine 20 mg/kg or GNR-E 50, 150, 450 mg/kg, vs vehicle-treated CMS group", "value": "significantly reduced these elevations"}, {"measurement": "CMS-increased 5-HT1A and 5-HT1B mRNA expression", "setting": "[2]; FC and HP, imipramine, GNR-E 450 mg/kg", "value": "reversed"}, {"measurement": "CMS-upregulated SERT mRNA expression", "setting": "[2]; [7]", "value": "reversed"}, {"measurement": "CMS-elevated 5-HT2A, 5-HT2C, and 5-HT7 receptor expression", "setting": "[2]; [8]", "value": "mitigated"}, {"measurement": "CMS-increased expression of noradrenergic genes (NET, α2A, α2C)", "setting": "NET, α2A, and α2C; FC and HP, daily imipramine or GNR-E, highest dose greatest effect", "value": "significantly attenuated"}, {"measurement": "CMS-upregulated NET mRNA expression", "setting": "NET, α2A, and α2C; [7]", "value": "reversed"}, {"measurement": "CMS-upregulated α2A and α2C receptor expression", "setting": "NET, α2A, and α2C; [8]", "value": "reversed"}, {"measurement": "NE levels in frontal cortex and hippocampus", "setting": "norepinephrine (NE)", "value": "significantly restored 5-HT and NE levels"}, {"measurement": "depressive-like behaviors", "setting": "[3]", "value": "significantly improved depressive-like behaviors"}, {"measurement": "CMS-induced changes in SGK-1 (increased) and GR (decreased) mRNA levels", "setting": "[4]", "value": "significantly reversed these changes"}, {"measurement": "5-HT levels in frontal cortex and hippocampus", "setting": "serotonin (5-HT)", "value": "significantly restored 5-HT and NE levels"}, {"measurement": "sucrose intake (2% sucrose solution)", "setting": "[5]", "value": "significant increase in sucrose intake"}]}
{"molecule": "xanthochymusxanthone A", "values": [{"measurement": "selective MAO-A inhibition", "setting": "MAO-A", "value": "selectively inhibiting MAO-A"}]}
{"molecule": "cowagarcinone A", "values": [{"measurement": "selective MAO-A inhibition", "setting": "MAO-A", "value": "selectively inhibiting MAO-A"}]}
{"molecule": "COc1c(O)cc2oc3cc(O)c(CC=C(C)C)c(O)c3c(=O)c2c1CC=C(C)C", "note": "[α-mangostin]", "values": [{"measurement": "immobility", "setting": "immobility", "value": "reducing immobility"}, {"measurement": "antidepressant-like properties", "setting": "[6]", "value": "antidepressant-like properties"}, {"measurement": "MAO-B inhibition (targeting)", "setting": "MAO-B", "value": "targeting MAO-B"}, {"measurement": "MAO-B inhibition, relative strength", "setting": "MAO-B; ref Our previous study", "value": "stronger MAO-B inhibition"}]}
{"molecule": "COc1c(O)cc2oc3cc(O)c(CC=C(C)C)c(O)c3c(=O)c2c1C/C=C(\\C)CCC=C(C)C", "note": "[cowanin]", "values": [{"measurement": "selective MAO-A inhibition", "setting": "MAO-A", "value": "selectively inhibiting MAO-A"}, {"measurement": "MAO-A inhibition, rank among constituents", "setting": "MAO-A; ref Our previous study", "value": "most potent toward MAO-A"}]}
{"molecule": "cowaxanthone", "values": [{"measurement": "selective MAO-A inhibition", "setting": "MAO-A", "value": "selectively inhibiting MAO-A"}]}
